Article PMC7150991 (Viruses, 2020)
Several values for one entry are separate records, joined by “and”; a condition that tells them apart may be missing. Equal values may be shown once. Read-outs that look alike come from different tables or passages of the source.

Key:
influenza A virus [1] = experiment: microbe, parasite or virus in culture; type: cell-based; details: A549, 48 h
influenza A virus [2] = experiment: microbe, parasite or virus in culture; type: cell-based; details: MDCK, 48 h
influenza A virus [3] = experiment: microbe, parasite or virus in culture; type: cell-based; details: 48 h
influenza A virus [4] = experiment: microbe, parasite or virus in culture; type: cell-based; details: 72 h
A549 cells = experiment: XTT cell viability assay, A549 cells; type: cell-based, human; details: 48 h
MDCK cells = experiment: XTT cell viability assay, MDCK cells; type: cell-based, canine; details: 48 h
LET1 cells = experiment: XTT cell viability assay, LET1 cells; type: cell-based, mouse; details: 48 h
HAE cultures = experiment: Cytotoxicity in HAE cultures; type: cell-based, human; details: up to 160 µM (0.054 µg/mL)
ERK1 = experiment: cells; type: cell-based, human
influenza A virus NP = type: cell-based, human
influenza virus [5] = details: MDCK cells, ref Wu et al. [20], cited from earlier work
influenza virus [6] = details: cited from earlier work
H1N1 virus = details: MDCK cells; ref Cecil et al. [19]; cited from earlier work

COc1ccc2cc3[n+](cc2c1OC)CCc1cc2c(cc1-3)OCO2 [BBR, Berberine chloride hydrate]
IC50 (influenza A virus [1]): 17 µM and 6 µg/mL
IC50 (influenza A virus [2]): 52 µM and 17 µg/mL
IC50 (influenza A virus [3]): 4 µM and 1 µg/mL
IC50 (influenza A virus [4]): 16 µM and 5 µg/mL
TC50 (A549 cells): 107 µM
TC50 (A549 cells; value in brackets): 0.036 µg/mL
TC50 (MDCK cells): 1035 µM
TC50 (MDCK cells; value in brackets): 0.350 µg/mL
TC50 (LET1 cells): 521 µM
TC50 (LET1 cells; value in brackets): 0.176 µg/mL
cytotoxicity at tested concentrations (HAE cultures): did not observe cytotoxicity
inhibition at 20 µM (ERK1; Homo sapiens, A549, 12 h, read-out: inhibition of ERK1 activation (phospho-ERK1, Western blot)): 45%
accumulation of influenza A virus NP in nuclear fractions (influenza A virus NP): did not cause significant accumulation
decrease of NP signal in cytoplasmatic fraction (influenza A virus NP): about 40 % inhibition
increase of viral NP in nuclear fractions compared to untreated infection (influenza A virus NP): ~ 3 fold
IC50 (influenza virus [5]; conversion of 0.025 µg/mL, read-out: IC50): ~67 µM
IC50 (influenza virus [5]): 0.025 µg/mL
mice mortality (influenza virus [6]; mice models, reduced from 90%): 55%
virus titers in the lungs (influenza virus [6]; mice, day 2 post-infection): decreased
inhibition of virus replication (H1N1 virus): No inhibition

N#CC(=C(/N)Sc1ccccc1N)/C(C#N)=C(/N)Sc1ccccc1N [U0126, reference compound]
inhibition of ERK1 activation (phospho-ERK1, Western blot) (ERK1): 76 % inhibition
decrease of NP signal in cytoplasmatic fraction (influenza A virus NP): about 40 % inhibition
increase of viral NP in nuclear fractions compared to untreated infection (influenza A virus NP): ~ 3 fold
